Data published in patent US11306117B2, “Whitening composition containing novel quercetin-based compound” (AMOREPACIFIC CORPORATION, priority 2017, dated 2022).

Tested on: healthy adult examinees
Assay: HRIPT (Human repeated insult patch tests), skin accumulated stimulus
Type: in vivo
Set-up: key to skin reactivity (ICDRG criteria): −: negative (no response); ±: doubtful or slight erythema, etc.; +: weak reaction (which is accompanied with no phlyctenule), erythema, papule; ++: severe reaction (which is accompanied with phylctenule), erythema, papule, phlyctenule; +++: strong reaction, bullae reaction
Conditions: for average reactivity: 9 patches, 15 examinees; for Number of examinees who exhibited ±, +, or ++ reactivity 1st: 1st patch; for Number of examinees who exhibited ±, +, or ++ reactivity 2nd: 2nd patch; for Number of examinees who exhibited ±, +, or ++ reactivity 3rd: 3rd patch; for Number of examinees who exhibited ±, +, or ++ reactivity 4th: 4th patch; for Number of examinees who exhibited ±, +, or ++ reactivity 5th: 5th patch; for Number of examinees who exhibited ±, +, or ++ reactivity 6th: 6th patch; for Number of examinees who exhibited ±, +, or ++ reactivity 7th: 7th patch; for Number of examinees who exhibited ±, +, or ++ reactivity 8th: 8th patch; for Number of examinees who exhibited ±, +, or ++ reactivity 9th: 9th patch
Procedure: HRIPT (Human repeated insult patch tests) was conducted in order to identify skin accumulated stimulus of quercetin3-O-[3-O″-(E)-p-coumaroyl][β-D-glucopyranosyl-(1→3)-O-α-L-rhamnopyranosyl-(1→6)-O-β-D-glucopyranoside] and quercetin3-O-[3-O″-(E)-p-coumaroyl][α-L-rhamnopyranosyl-(1→6)-O-β-D-glucopyranoside]and to calculate the concentration range that can be used in skin.
Specifically, 15 healthy adult examinees were randomly selected, and test compositions in which the compounds were respectively comprised in an amount of 0.5 wt. %, 1 wt. %, and 3 wt. % (the compositions for skin, comprising an emulsifying agent, a stabilizer, purified water, etc. in addition to the compounds) were dropped in the amount of 20 μl per chamber (IQ chamber, Epitest Ltd, Finland), and patched on the right site of the upper back of the examinees, and then, after 24 hours, the patch was replaced with a new patch. A total of 9 patches were conducted, three times a week for total 3 weeks, in such manner, the skin reactions before and after patch were examined every time, and the skin reactions until 48 hours after removing the final patch were observed, and the average reactivity was observed.
The skin reaction was determined according to the criteria of International Contact Dermatitis Research Group (ICDRG). In the above table, “New Material 31” refers to quercetin3-O-[3-O″-(E)-p-coumaroyl][β-D-glucopyranosyl-(1→3)-O-α-L-rhamnopyranosyl-(1→6)-O-β-D-glucopyranoside], and “New Material 32” refers to quercetin3-O-[3-O″-(E)-p-coumaroyl][α-L-rhamnopyranosyl-(1→6)-O-β-D-glucopyranoside].

C[C@@H]1O[C@@H](OC[C@H]2O[C@@H](Oc3c(-c4ccc(O)c(O)c4)oc4cc(O)cc(O)c4c3=O)[C@H](O)[C@@H](OC(=O)/C=C/c3ccc(O)cc3)[C@@H]2O)[C@H](O)[C@H](O)[C@H]1O [New Material 32, quercetin3-O-[3-O″-(E)-p-coumaroyl][α-L-rhamnopyranosyl-(1→6)-O-β-D-glucopyranoside]]
average reactivity (0.5 wt.% in test composition): 0 | skin reactivity (ICDRG criteria) (0.5 wt.%, 1 wt.% and 3 wt.%, 9 patches in 3 weeks): − | Number of examinees who exhibited ±, +, or ++ reactivity 1st (0.5 wt.%, line 1 of 3 (±)): 0 number | Number of examinees who exhibited ±, +, or ++ reactivity 1st (0.5 wt.%, line 2 of 3 (+)): 0 number | Number of examinees who exhibited ±, +, or ++ reactivity 1st (0.5 wt.%, line 3 of 3 (++)): 0 number | Number of examinees who exhibited ±, +, or ++ reactivity 2nd (0.5 wt.%, line 1 of 3 (±)): 0 number | Number of examinees who exhibited ±, +, or ++ reactivity 2nd (0.5 wt.%, line 2 of 3 (+)): 0 number | Number of examinees who exhibited ±, +, or ++ reactivity 2nd (0.5 wt.%, line 3 of 3 (++)): 0 number | Number of examinees who exhibited ±, +, or ++ reactivity 3rd (0.5 wt.%, line 1 of 3 (±)): 0 number | Number of examinees who exhibited ±, +, or ++ reactivity 3rd (0.5 wt.%, line 2 of 3 (+)): 0 number | Number of examinees who exhibited ±, +, or ++ reactivity 3rd (0.5 wt.%, line 3 of 3 (++)): 0 number | Number of examinees who exhibited ±, +, or ++ reactivity 4th (0.5 wt.%, line 1 of 3 (±)): 0 number | Number of examinees who exhibited ±, +, or ++ reactivity 4th (0.5 wt.%, line 2 of 3 (+)): 0 number | Number of examinees who exhibited ±, +, or ++ reactivity 4th (0.5 wt.%, line 3 of 3 (++)): 0 number | Number of examinees who exhibited ±, +, or ++ reactivity 5th (0.5 wt.%, line 1 of 3 (±)): 0 number | Number of examinees who exhibited ±, +, or ++ reactivity 5th (0.5 wt.%, line 2 of 3 (+)): 0 number | Number of examinees who exhibited ±, +, or ++ reactivity 5th (0.5 wt.%, line 3 of 3 (++)): 0 number | Number of examinees who exhibited ±, +, or ++ reactivity 6th (0.5 wt.%, line 1 of 3 (±)): 0 number | Number of examinees who exhibited ±, +, or ++ reactivity 6th (0.5 wt.%, line 2 of 3 (+)): 0 number | Number of examinees who exhibited ±, +, or ++ reactivity 6th (0.5 wt.%, line 3 of 3 (++)): 0 number | Number of examinees who exhibited ±, +, or ++ reactivity 7th (0.5 wt.%, line 1 of 3 (±)): 0 number | Number of examinees who exhibited ±, +, or ++ reactivity 7th (0.5 wt.%, line 2 of 3 (+)): 0 number | Number of examinees who exhibited ±, +, or ++ reactivity 7th (0.5 wt.%, line 3 of 3 (++)): 0 number | Number of examinees who exhibited ±, +, or ++ reactivity 8th (0.5 wt.%, line 1 of 3 (±)): 0 number | Number of examinees who exhibited ±, +, or ++ reactivity 8th (0.5 wt.%, line 2 of 3 (+)): 0 number | Number of examinees who exhibited ±, +, or ++ reactivity 8th (0.5 wt.%, line 3 of 3 (++)): 0 number | Number of examinees who exhibited ±, +, or ++ reactivity 9th (0.5 wt.%, line 1 of 3 (±)): 0 number | Number of examinees who exhibited ±, +, or ++ reactivity 9th (0.5 wt.%, line 2 of 3 (+)): 0 number | Number of examinees who exhibited ±, +, or ++ reactivity 9th (0.5 wt.%, line 3 of 3 (++)): 0 number | average reactivity (1 wt.% in test composition): 0 | Number of examinees who exhibited ±, +, or ++ reactivity 1st (1 wt.%, line 1 of 3 (±)): 0 number | Number of examinees who exhibited ±, +, or ++ reactivity 1st (1 wt.%, line 2 of 3 (+)): 0 number | Number of examinees who exhibited ±, +, or ++ reactivity 1st (1 wt.%, line 3 of 3 (++)): 0 number | Number of examinees who exhibited ±, +, or ++ reactivity 2nd (1 wt.%, line 1 of 3 (±)): 0 number | Number of examinees who exhibited ±, +, or ++ reactivity 2nd (1 wt.%, line 2 of 3 (+)): 0 number | Number of examinees who exhibited ±, +, or ++ reactivity 2nd (1 wt.%, line 3 of 3 (++)): 0 number | Number of examinees who exhibited ±, +, or ++ reactivity 3rd (1 wt.%, line 1 of 3 (±)): 0 number | Number of examinees who exhibited ±, +, or ++ reactivity 3rd (1 wt.%, line 2 of 3 (+)): 0 number | Number of examinees who exhibited ±, +, or ++ reactivity 3rd (1 wt.%, line 3 of 3 (++)): 0 number | Number of examinees who exhibited ±, +, or ++ reactivity 4th (1 wt.%, line 1 of 3 (±)): 0 number | Number of examinees who exhibited ±, +, or ++ reactivity 4th (1 wt.%, line 2 of 3 (+)): 0 number | Number of examinees who exhibited ±, +, or ++ reactivity 4th (1 wt.%, line 3 of 3 (++)): 0 number | Number of examinees who exhibited ±, +, or ++ reactivity 5th (1 wt.%, line 1 of 3 (±)): 0 number | Number of examinees who exhibited ±, +, or ++ reactivity 5th (1 wt.%, line 2 of 3 (+)): 0 number | Number of examinees who exhibited ±, +, or ++ reactivity 5th (1 wt.%, line 3 of 3 (++)): 0 number | Number of examinees who exhibited ±, +, or ++ reactivity 6th (1 wt.%, line 1 of 3 (±)): 0 number | Number of examinees who exhibited ±, +, or ++ reactivity 6th (1 wt.%, line 2 of 3 (+)): 0 number | Number of examinees who exhibited ±, +, or ++ reactivity 6th (1 wt.%, line 3 of 3 (++)): 0 number | Number of examinees who exhibited ±, +, or ++ reactivity 7th (1 wt.%, line 1 of 3 (±)): 0 number | Number of examinees who exhibited ±, +, or ++ reactivity 7th (1 wt.%, line 2 of 3 (+)): 0 number | Number of examinees who exhibited ±, +, or ++ reactivity 7th (1 wt.%, line 3 of 3 (++)): 0 number | Number of examinees who exhibited ±, +, or ++ reactivity 8th (1 wt.%, line 1 of 3 (±)): 0 number | Number of examinees who exhibited ±, +, or ++ reactivity 8th (1 wt.%, line 2 of 3 (+)): 0 number | Number of examinees who exhibited ±, +, or ++ reactivity 8th (1 wt.%, line 3 of 3 (++)): 0 number | Number of examinees who exhibited ±, +, or ++ reactivity 9th (1 wt.%, line 1 of 3 (±)): 0 number | Number of examinees who exhibited ±, +, or ++ reactivity 9th (1 wt.%, line 2 of 3 (+)): 0 number | Number of examinees who exhibited ±, +, or ++ reactivity 9th (1 wt.%, line 3 of 3 (++)): 0 number | average reactivity (3 wt.% in test composition): 0 | Number of examinees who exhibited ±, +, or ++ reactivity 1st (3 wt.%, line 1 of 3 (±)): 0 number | Number of examinees who exhibited ±, +, or ++ reactivity 1st (3 wt.%, line 2 of 3 (+)): 0 number | Number of examinees who exhibited ±, +, or ++ reactivity 1st (3 wt.%, line 3 of 3 (++)): 0 number | Number of examinees who exhibited ±, +, or ++ reactivity 2nd (3 wt.%, line 1 of 3 (±)): 0 number | Number of examinees who exhibited ±, +, or ++ reactivity 2nd (3 wt.%, line 2 of 3 (+)): 0 number | Number of examinees who exhibited ±, +, or ++ reactivity 2nd (3 wt.%, line 3 of 3 (++)): 0 number | Number of examinees who exhibited ±, +, or ++ reactivity 3rd (3 wt.%, line 1 of 3 (±)): 0 number | Number of examinees who exhibited ±, +, or ++ reactivity 3rd (3 wt.%, line 2 of 3 (+)): 0 number | Number of examinees who exhibited ±, +, or ++ reactivity 3rd (3 wt.%, line 3 of 3 (++)): 0 number | Number of examinees who exhibited ±, +, or ++ reactivity 4th (3 wt.%, line 1 of 3 (±)): 0 number | Number of examinees who exhibited ±, +, or ++ reactivity 4th (3 wt.%, line 2 of 3 (+)): 0 number | Number of examinees who exhibited ±, +, or ++ reactivity 4th (3 wt.%, line 3 of 3 (++)): 0 number | Number of examinees who exhibited ±, +, or ++ reactivity 5th (3 wt.%, line 1 of 3 (±)): 0 number | Number of examinees who exhibited ±, +, or ++ reactivity 5th (3 wt.%, line 2 of 3 (+)): 0 number | Number of examinees who exhibited ±, +, or ++ reactivity 5th (3 wt.%, line 3 of 3 (++)): 0 number | Number of examinees who exhibited ±, +, or ++ reactivity 6th (3 wt.%, line 1 of 3 (±)): 0 number | Number of examinees who exhibited ±, +, or ++ reactivity 6th (3 wt.%, line 2 of 3 (+)): 0 number | Number of examinees who exhibited ±, +, or ++ reactivity 6th (3 wt.%, line 3 of 3 (++)): 0 number | Number of examinees who exhibited ±, +, or ++ reactivity 7th (3 wt.%, line 1 of 3 (±)): 0 number | Number of examinees who exhibited ±, +, or ++ reactivity 7th (3 wt.%, line 2 of 3 (+)): 0 number | Number of examinees who exhibited ±, +, or ++ reactivity 7th (3 wt.%, line 3 of 3 (++)): 0 number | Number of examinees who exhibited ±, +, or ++ reactivity 8th (3 wt.%, line 1 of 3 (±)): 0 number | Number of examinees who exhibited ±, +, or ++ reactivity 8th (3 wt.%, line 2 of 3 (+)): 0 number | Number of examinees who exhibited ±, +, or ++ reactivity 8th (3 wt.%, line 3 of 3 (++)): 0 number | Number of examinees who exhibited ±, +, or ++ reactivity 9th (3 wt.%, line 1 of 3 (±)): 0 number | Number of examinees who exhibited ±, +, or ++ reactivity 9th (3 wt.%, line 2 of 3 (+)): 0 number | Number of examinees who exhibited ±, +, or ++ reactivity 9th (3 wt.%, line 3 of 3 (++)): 0 number
